From patent publication US20200277556A1, “USE OF AN ADDITIVE TO IMPROVE THE QUALITY OF BEVERAGES BASED ON PLANT MUSTS” (OENOTROPIC INNOVATION, priority 2017, published 2020)

Test system: Wine Proteins
Assay: Effect of different cofactors on the activity of bromelain on wine, SDS PAGE
Format: biochemical
Conditions: CaCl2 as cofactor of bromelain; data not presented
Description: Cysteine is known to improve the activity of bromelain. […] To test the relevance of using methionine and glutathione as cofactors of a cysteine protease, the inventors compared the effect of these cofactors to the effect of cysteine on the activity of bromelain in wine. To this end, the following protocol has been implemented: • Wine: Gewurztraminer type with a pH of 3.8; • Add 10 mM of cysteine, glutathione or methionine, for 3 wine samples; • Weigh four times 8 mg of the pre-purified extract obtained from the sequence of steps 1, 2 and 4 of the above method; • Dissolve each pre-purified extract in wine, wine in the presence of cysteine, wine in the presence of glutathione and wine in the presence of methionine; • Leave in contact for 16 hours, with the plate stirring at 80 rpm and at room temperature; • Take 60 μl of the supernatant; • Add 20 μl of Laemmli 4×; • Place 50 μl on SDS PAGE gel.

With [Ca+2].[Cl-].[Cl-] [CaCl2, calcium chloride] the “effect on the hydrolysis of wine proteins” value was “positive effect”.
